US5214055A, “Aminopiperidine 4-oxo-4H-chromen-2-yl compounds” (Adir et Compagnie, priority 1990, dated 1993)
Counter-ions that a name gives are not always drawn. Like-named read-outs stand apart in the source and are kept apart here.

What was measured:
[1] = molecular target: T1, 5HT1A receptor (Rattus norvegicus, UniProt P19327); experiment: "Tail-Flicks" test on rats (reduction of 8-OH-DPAT induced tail movements); assay type: in vivo; details: sc, tail movements induced by subcutaneous 8-OH-DPAT, read-out: ED50 (amount that reduces 8-OH-DPAT action by 50%)
T1 construct: Subcutaneous injection of rats with 8-OH-DPAT spontaneously induces tail movements; from tissue; host or cells: whole living rat (in vivo)
T1 sequence (P19327 1-422): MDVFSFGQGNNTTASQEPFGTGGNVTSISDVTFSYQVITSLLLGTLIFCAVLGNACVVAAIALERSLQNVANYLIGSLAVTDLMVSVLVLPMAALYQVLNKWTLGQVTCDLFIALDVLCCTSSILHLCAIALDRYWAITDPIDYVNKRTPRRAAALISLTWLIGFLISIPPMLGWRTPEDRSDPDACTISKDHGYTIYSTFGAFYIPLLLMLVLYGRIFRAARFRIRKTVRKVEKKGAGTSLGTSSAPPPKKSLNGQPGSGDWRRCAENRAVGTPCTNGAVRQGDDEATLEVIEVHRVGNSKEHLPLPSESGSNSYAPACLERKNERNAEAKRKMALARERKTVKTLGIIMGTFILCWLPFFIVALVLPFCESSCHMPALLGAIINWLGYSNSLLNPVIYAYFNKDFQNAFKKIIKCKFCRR
From the text: a) "Tail-Flicks" test on rats
Subcutaneous injection of rats with 8-OH-DPAT spontaneously induces tail movements ("Tail-Flicks"). These movements are reduced in a specific manner by 5HT1A receptor antagonists. The ED50 values, that is to say those amounts of the compounds of the invention that reduce 8-OH-DPAT action by 50%, are listed in Table II.

[2] = molecular target: sigma receptor; experiment: Sigma binding test (in vitro), inhibition of [3H] ditolylguanidine binding; parameters: species or system guinea pig
Description: b) Sigma binding test (in vitro)
The affinity of the compounds of the invention to the sigma receptor in brain tissue is evaluated by the degree of inhibition of the binding of a sigma site radioligand in in vitro competition experiments.
The experiment protocol used is that described by WEBER et at. Proc. Nat. Acad. Sci. USA, (1986), 83, 8784-8788.
The ligand is 1,2-di-(2-[5-^3 H]tolyl)guanidine (Dupont de Nemours--55 Ci/mmol) at a final concentration of 2 nM.
The membrane preparation is a suspension of central nervous system microsomes of a guinea pig used at a final concentration of 0.5 mg of prot/ml.
The non-specific fixation is determined in the presence of 10 μM of haloperidol.
The results, given in Table III, to illustrate the invention are expressed at IC50 =K.0.5 (M)

[3] = guinea pig central nervous system microsomes, 0.5 mg of prot/ml, ligand 2 nM, non-specific: 10 μM haloperidol

Row | SMILES | ED50 [1] [mg/kg] | IC50 [2, 3] [nM] | IC50 [2] [nM]
1 | CN(C(=O)Oc1ccccc1)C1CCN(CC2Cc3ccccc32)CC1 (stereo not drawn) [Example 12, Phenyl N-[1-(benzocyclobuten-1-ylmethyl)-piperid-4-yl]-N-methylcarbamate hydrochloride] | – | – | 30
2 | CCOC(=O)N(CC)C1CCN(CC2Cc3ccccc32)CC1 (stereo not drawn) [Example 13, Ethyl N-[1-(benzocyclobuten-1-ylmethyl)-piperid-4-yl]-N-ethylcarbamate hydrochloride] | 1.25 | – | –
3 | CC(C)COC(=O)N(C)C1CCN(CC2Cc3ccccc32)CC1 (stereo not drawn) [Example 15, Isobutyl N-[1-(benzocyclobuten-1-ylmethyl)-piperid-4-yl]-N-methylcarbamate fumarate] | 1.25 | 100 | –
4 | CN(C(=O)OCc1ccccc1)C1CCN(CC2Cc3ccccc32)CC1 (stereo not drawn) [Example 19, Benzyl N-[1-(benzocyclobuten-1-ylmethyl)-piperid-4-yl]-N-methylcarbamate hydrochloride] | – | 30 | –
5 | CCN(C(C)=O)C1CCN(CC2Cc3ccccc32)CC1 (stereo not drawn) [Example 21, N-[1-(benzocyclobuten-1-ylmethyl)-piperid-4-yl]-N-ethylacetamide hydrochloride] | 0.63 | – | –
6 | CCOC(=O)N(C)C1CCN(CC2Cc3c2ccc2c3OCO2)CC1 (stereo not drawn) [Example 28, Ethyl N-{1-[(3,4-methylenedioxybenzocyclobuten-1-yl)methyl[-piperid-4-yl}-N-methylcarbamate fumarate] | 2.5 | – | –
7 | CC(C)COC(=O)N(C)C1CCN(C2Cc3ccccc3C2)CC1 [Example 43, Isobutyl N-[1-(indan-2-yl)-piperid-4-yl]-N-methylcarbamate fumarate] | – | 4 | –
8 | CCCOC(=O)N(C)C1CCN(C2Cc3ccccc3C2)CC1 [Example 44, Propyl N-[1-(indan-2-yl)-piperid-4-yl]-N-methylcarbamate] | 2.5 | 40 | –

Continued, in another order:

Row | ED50 [1] [mg/kg] | IC50 [2, 3] [nM] | SMILES | IC50 [2] [nM]
9 | 1.25 | 50 | C=COC(=O)N(C)C1CCN(CC2Cc3ccccc32)CC1 (racemic) [Example 42, (R,S)-vinyl N-[1-(benzocyclobuten-1ylmethyl)-piperid-4-yl]-N-methylcarbamate hydrochlo ride] | –
10 | 1.25 | – | COC(=O)N(C)C1CCN(CC2Cc3ccccc32)CC1 (stereo not drawn) [Example 8, Methyl [1-benzocyclobuten-1-ylmethyl)-piperid-4-yl]-N-methylcarbamate hydrochloride] | –
11 | 0.31 | 30 | CCCOC(=O)N(C)C1CCN(CC2Cc3ccccc32)CC1 (stereo not drawn) [Example 9, Propyl N-[1-(benzocyclobuten-1-ylmethyl)-piperid-4-yl]-N-methylcarbamate hydrochloride] | –
12 | 2.5 | – | CN(C(=O)OC(C)(C)C)C1CCN(CC2Cc3ccccc32)CC1 (stereo not drawn) [Example 11, Tert-butyl N-[1-(benzocyclobuten-1-ylmethyl)-piperid-4-yl]-N-methylcarbamate hydrochl oride] | –
13 | 0.02 | – | CCN(C(=O)OC)C1CCN(CC2Cc3ccccc32)CC1 (stereo not drawn) [Example 14, Methyl N-[1-(benzocyclobuten-1-ylmethyl)-piperid-4-yl]-N-ethylcarbamate hydrochloride] | –
14 | 2.5 | – | CCOC(=O)N(C)C1CCN(CC2Cc3ccccc32)CC1 (stereo not drawn) [Example 23, Ethyl N-[1-(benzocyclobuten-1-ylmethyl)-piperid-4-yl]-N-methylcarbamate hydrochloride] | –
